Where a SMILES comes first, the peptide text is derived from it. Bridges are numbered along the chain shown (N, C = ends). The star is where a group is joined. Bz = O=C(c1ccccc1)*
Assays:
Format in all cases: cell-based
GLP-1 receptor = molecular target: T1, GLP-1 receptor (Homo sapiens, UniProt P43220); assay: cAMP synthesis functional assay (firefly luciferase reporter in HEK293 cells), GLP-1 receptor; settings: Table 1; for GLP-1 Receptor relative activity: relative to the native hormone of the indicated receptor
T1 construct: expressed in transfected cells; host or cells: HEK293
T1 sequence (P43220 24-463, species assumed): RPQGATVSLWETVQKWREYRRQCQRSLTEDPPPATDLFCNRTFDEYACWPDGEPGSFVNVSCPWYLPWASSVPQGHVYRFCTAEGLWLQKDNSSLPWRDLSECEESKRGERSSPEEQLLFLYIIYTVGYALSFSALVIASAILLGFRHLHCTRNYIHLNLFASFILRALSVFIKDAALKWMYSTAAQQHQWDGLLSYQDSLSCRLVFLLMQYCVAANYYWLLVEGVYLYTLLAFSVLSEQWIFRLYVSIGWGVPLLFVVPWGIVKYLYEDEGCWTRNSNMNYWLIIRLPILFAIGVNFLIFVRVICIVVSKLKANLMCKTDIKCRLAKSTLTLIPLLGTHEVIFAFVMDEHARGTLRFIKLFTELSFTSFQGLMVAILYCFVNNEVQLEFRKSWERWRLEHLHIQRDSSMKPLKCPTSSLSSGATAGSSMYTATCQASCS

GIP receptor = molecular target: T2, GIP receptor (Homo sapiens, UniProt P48546); assay: cAMP synthesis functional assay (firefly luciferase reporter in HEK293 cells), GIP receptor; settings: Table 1; relative to the native hormone of the indicated receptor
T2 construct: expressed in transfected cells; host or cells: HEK293
T2 sequence (P48546 22-466): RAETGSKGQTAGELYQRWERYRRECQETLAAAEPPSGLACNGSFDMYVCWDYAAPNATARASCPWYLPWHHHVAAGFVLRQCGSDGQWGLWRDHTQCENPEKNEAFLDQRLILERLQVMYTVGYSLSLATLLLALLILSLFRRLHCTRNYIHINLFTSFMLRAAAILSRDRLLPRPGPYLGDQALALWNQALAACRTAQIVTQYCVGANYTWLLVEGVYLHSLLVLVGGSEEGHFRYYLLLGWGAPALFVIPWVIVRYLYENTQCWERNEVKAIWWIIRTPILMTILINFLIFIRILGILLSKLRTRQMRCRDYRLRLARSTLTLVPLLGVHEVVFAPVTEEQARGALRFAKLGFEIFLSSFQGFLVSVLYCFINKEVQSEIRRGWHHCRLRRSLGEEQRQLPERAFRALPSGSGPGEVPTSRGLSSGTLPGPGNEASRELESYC

glucagon receptor = molecular target: T3, glucagon receptor (Homo sapiens, UniProt P47871); assay: cAMP synthesis functional assay (firefly luciferase reporter in HEK293 cells), glucagon receptor; settings: Table 1; for Glucagon Receptor relative activity: relative to the native hormone of the indicated receptor
T3 construct: expressed in transfected cells; host or cells: HEK293
T3 sequence (P47871 26-477): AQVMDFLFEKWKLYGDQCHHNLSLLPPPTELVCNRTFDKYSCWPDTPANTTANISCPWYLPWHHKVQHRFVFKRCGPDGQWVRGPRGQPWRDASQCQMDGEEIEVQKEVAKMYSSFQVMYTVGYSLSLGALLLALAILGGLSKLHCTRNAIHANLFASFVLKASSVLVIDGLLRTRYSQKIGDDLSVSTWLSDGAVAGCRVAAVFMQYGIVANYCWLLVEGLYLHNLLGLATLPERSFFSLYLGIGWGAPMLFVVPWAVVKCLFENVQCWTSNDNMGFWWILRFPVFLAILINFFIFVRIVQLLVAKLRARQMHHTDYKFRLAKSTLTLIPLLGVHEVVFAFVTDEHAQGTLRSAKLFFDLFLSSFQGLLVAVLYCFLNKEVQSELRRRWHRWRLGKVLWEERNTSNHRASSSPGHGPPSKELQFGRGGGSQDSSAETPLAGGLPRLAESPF

| SMILES | EC50 (GLP-1 receptor; GLP-1 Receptor EC50, nM) | GLP-1 Receptor relative activity (GLP-1 receptor) | GIP Receptor relative activity (GIP receptor) | Glucagon Receptor relative activity (glucagon receptor) | EC50 (glucagon receptor; Glucagon Receptor EC50, nM) |
| --- | --- | --- | --- | --- | --- |
| CC[C@H](C)[C@H](NC(=O)[C@H](CO)NC(=O)[C@H](Cc1ccc(O)cc1)NC(=O)[C@H](CC(=O)O)NC(=O)[C@H](CO)NC(=O)[C@@H](NC(=O)[C@H](Cc1ccccc1)NC(=O)[C@@H](NC(=O)CNC(=O)[C@H](CCC(N)=O)NC(=O)[C@H](C)NC(=O)[C@@H](N)Cc1ccc(O)cc1)[C@@H](C)O)[C@@H](C)O)C(=O)N[C@@H](Cc1ccc(O)cc1)C(=O)N[C@@H](CCSC)C(=O)N[C@@H](CC(=O)O)C(=O)N[C@H]1CCC(=O)NCCCC[C@@H](C(=O)N[C@@H](CCC(=O)O)C(=O)N[C@@H](Cc2ccccc2)C(=O)N[C@H](C(=O)N[C@@H](CC(N)=O)C(=O)N[C@@H](Cc2c[nH]c3ccccc23)C(=O)N[C@@H](CC(C)C)C(=O)N[C@@H](CC(C)C)C(=O)N[C@@H](C)C(=O)NCC(=O)NCC(=O)N2CCC[C@H]2C(=O)N[C@@H](CO)C(=O)N[C@@H](CO)C(=O)NCC(=O)N[C@@H](C)C(=O)N2CCC[C@H]2C(=O)N2CCC[C@H]2C(=O)N2CCC[C@H]2C(=O)N[C@@H](CO)C(N)=O)C(C)C)NC(=O)[C@H](C)NC(=O)[C@H](C)NC(=O)[C@H](CCC(N)=O)NC1=O [mt-144] (H-YAQGTFTSDYSIYMDEQAAKEFVNWLLAGGPSSGAPPPS-NH2; lactam 16-20; N-terminus assumed) | 0.036 nM | 141.67% | 18.54% | 16.77% |  |
| CC[C@H](C)[C@H](NC(=O)[C@H](Cc1ccccc1)NC(=O)[C@@H](NC(=O)CNC(=O)[C@H](CCC(N)=O)NC(=O)[C@H](C)NC(=O)[C@@H](N)Cc1ccc(O)cc1)[C@@H](C)O)C(=O)N[C@@H](CO)C(=O)N[C@@H](CC(=O)O)C(=O)N[C@@H](Cc1ccc(O)cc1)C(=O)N[C@@H](CO)C(=O)N[C@@H](CCCCN)C(=O)N[C@@H](Cc1ccc(O)cc1)C(=O)N[C@@H](CC(C)C)C(=O)N[C@@H](CC(=O)O)C(=O)N[C@H]1CCC(=O)NCCCC[C@@H](C(=O)N[C@@H](CCC(=O)O)C(=O)N[C@@H](Cc2ccccc2)C(=O)N[C@H](C(=O)N[C@@H](CC(N)=O)C(=O)N[C@@H](Cc2c[nH]c3ccccc23)C(=O)N[C@@H](CC(C)C)C(=O)N[C@@H](CC(C)C)C(=O)N[C@@H](C)C(=O)NCC(=O)NCC(=O)N2CCC[C@H]2C(=O)N[C@@H](CO)C(=O)N[C@@H](CO)C(=O)NCC(=O)N[C@@H](C)C(=O)N2CCC[C@H]2C(=O)N2CCC[C@H]2C(=O)N2CCC[C@H]2C(=O)N[C@@H](CO)C(N)=O)C(C)C)NC(=O)[C@H](C)NC(=O)[C@H](C)NC(=O)[C@H](CCC(N)=O)NC1=O [mt-145] (H-YAQGTFISDYSKYLDEQAAKEFVNWLLAGGPSSGAPPPS-NH2; lactam 16-20; N-terminus assumed) |  | 0.33% | 4.79% | 47.06% |  |
| CC[C@H](C)[C@H](NC(=O)[C@H](Cc1ccccc1)NC(=O)[C@@H](NC(=O)CNC(=O)[C@H](CCC(N)=O)NC(=O)[C@H](C)NC(=O)[C@@H](N)Cc1ccc(O)cc1)[C@@H](C)O)C(=O)N[C@@H](CO)C(=O)N[C@@H](CC(=O)O)C(=O)N[C@@H](Cc1ccc(O)cc1)C(=O)N[C@@H](CO)C(=O)N[C@@H](CCCCN)C(=O)N[C@@H](Cc1ccc(O)cc1)C(=O)N[C@@H](CC(C)C)C(=O)N[C@@H](CC(=O)O)C(=O)N[C@H]1CCC(=O)NCCCC[C@@H](C(=O)N[C@@H](CCC(=O)O)C(=O)N[C@@H](Cc2ccccc2)C(=O)N[C@H](C(=O)N[C@@H](CC(N)=O)C(=O)N[C@@H](Cc2c[nH]c3ccccc23)C(=O)N[C@@H](CC(C)C)C(=O)N[C@@H](CC(C)C)C(=O)N[C@@H](C)C(=O)NCC(=O)NCC(=O)N2CCC[C@H]2C(=O)N[C@@H](CO)C(=O)N[C@@H](CO)C(=O)NCC(=O)N[C@@H](C)C(=O)N2CCC[C@H]2C(=O)N2CCC[C@H]2C(=O)N2CCC[C@H]2C(=O)N[C@@H](CO)C(N)=O)C(C)C)NC(=O)[C@H](C)NC(=O)[C@H](C)NC(=O)[C@H](CCC(N)=O)NC1=O [mt-146] (H-YAQGTFISDYSKYLDEQAAKEFVNWLLAGGPSSGAPPPS-NH2; lactam 16-20; N-terminus assumed) |  | 0.25% | 13.30% | 480.00% |  |
| CC[C@H](C)[C@H](NC(=O)[C@H](CO)NC(=O)[C@H](Cc1ccc(O)cc1)NC(=O)[C@H](CC(=O)O)NC(=O)[C@H](CO)NC(=O)[C@@H](NC(=O)[C@H](Cc1ccccc1)NC(=O)[C@@H](NC(=O)CNC(=O)[C@H](CCC(N)=O)NC(=O)[C@H](CO)NC(=O)[C@@H](N)Cc1ccc(O)cc1)[C@@H](C)O)[C@@H](C)CC)C(=O)N[C@@H](Cc1ccc(O)cc1)C(=O)N[C@@H](CC(C)C)C(=O)N[C@@H](CC(=O)O)C(=O)N[C@H]1CCC(=O)NCCCC[C@@H](C(=O)N[C@@H](CCC(=O)O)C(=O)N[C@@H](Cc2ccccc2)C(=O)N[C@H](C(=O)N[C@@H](CC(N)=O)C(=O)N[C@@H](Cc2c[nH]c3ccccc23)C(=O)N[C@@H](CC(C)C)C(=O)N[C@@H](CC(C)C)C(=O)N[C@@H](C)C(=O)NCC(=O)NCC(=O)N2CCC[C@H]2C(=O)N[C@@H](CO)C(=O)N[C@@H](CO)C(=O)NCC(=O)N[C@@H](C)C(=O)N2CCC[C@H]2C(=O)N2CCC[C@H]2C(=O)N2CCC[C@H]2C(=O)N[C@@H](CO)C(N)=O)C(C)C)NC(=O)[C@H](C)NC(=O)[C@H](C)NC(=O)[C@H](CCC(N)=O)NC1=O [mt-150] (H-YSQGTFISDYSIYLDEQAAKEFVNWLLAGGPSSGAPPPS-NH2; lactam 16-20; N-terminus assumed) |  | 1.09% | 26.72% | 316.67% |  |
| CC[C@H](C)[C@H](NC(=O)[C@H](CO)NC(=O)[C@H](Cc1ccc(O)cc1)NC(=O)[C@H](CC(=O)O)NC(=O)[C@H](CO)NC(=O)[C@@H](NC(=O)[C@H](Cc1ccccc1)NC(=O)[C@@H](NC(=O)CNC(=O)[C@H](CCC(N)=O)NC(=O)[C@H](CO)NC(=O)CNC(=O)c1ccccc1)[C@@H](C)O)[C@@H](C)O)C(=O)N[C@@H](Cc1ccc(O)cc1)C(=O)N[C@@H](CC(C)C)C(=O)N[C@@H](CC(=O)O)C(=O)N[C@H]1CCC(=O)NCCCC[C@@H](C(=O)N[C@@H](CCC(=O)O)C(=O)N[C@@H](Cc2ccccc2)C(=O)N[C@H](C(=O)N[C@@H](CC(N)=O)C(=O)N[C@@H](Cc2c[nH]c3ccccc23)C(=O)N[C@@H](CC(C)C)C(=O)N[C@@H](CC(C)C)C(=O)N[C@@H](C)C(=O)NCC(=O)NCC(=O)N2CCC[C@H]2C(=O)N[C@@H](CO)C(=O)N[C@@H](CO)C(=O)NCC(=O)N[C@@H](C)C(=O)N2CCC[C@H]2C(=O)N2CCC[C@H]2C(=O)N2CCC[C@H]2C(=O)N[C@@H](CO)C(N)=O)C(C)C)NC(=O)[C@H](C)NC(=O)[C@H](C)NC(=O)[C@H](CCC(N)=O)NC1=O [mt-154] (Bz-GSQGTFTSDYSIYLDEQAAKEFVNWLLAGGPSSGAPPPS-NH2; lactam 16-20) |  | 0.70% | 1.07% | 7.40% |  |
| CC(C)C[C@H](NC(=O)[C@H](CC(C)C)NC(=O)[C@H](Cc1c[nH]c2ccccc12)NC(=O)[C@H](CC(N)=O)NC(=O)[C@@H](NC(=O)[C@H](Cc1ccccc1)NC(=O)[C@H](CCC(=O)O)NC(=O)[C@H](CCCCN)NC(=O)[C@H](C)NC(=O)[C@H](C)NC(=O)[C@H](CCC(N)=O)NC(=O)[C@@H]1CCC(=O)NCCCC[C@H](NC(=O)[C@H](CO)NC(=O)[C@H](Cc2ccc(O)cc2)NC(=O)[C@H](CC(=O)O)NC(=O)[C@H](CO)NC(=O)[C@@H](NC(=O)[C@H](Cc2ccccc2)NC(=O)[C@@H](NC(=O)CNC(=O)[C@H](CCC(N)=O)NC(=O)[C@H](CO)NC(=O)[C@@H](N)Cc2ccc(O)cc2)[C@@H](C)O)[C@@H](C)O)C(=O)N[C@@H](Cc2ccc(O)cc2)C(=O)N[C@@H](CC(C)C)C(=O)N[C@@H](CC(=O)O)C(=O)N1)C(C)C)C(=O)N[C@@H](C)C(=O)NCC(=O)NCC(=O)N1CCC[C@H]1C(=O)N[C@@H](CO)C(=O)N[C@@H](CO)C(=O)NCC(=O)N[C@@H](C)C(=O)N1CCC[C@H]1C(=O)N1CCC[C@H]1C(=O)N1CCC[C@H]1C(=O)N[C@@H](CO)C(N)=O [mt-155] (H-YSQGTFTSDYSKYLDEQAAKEFVNWLLAGGPSSGAPPPS-NH2; lactam 12-16; N-terminus assumed) |  | 98.99% | 7.02% | 10.93% | 1.28 nM |
| CC[C@H](C)[C@H](NC(=O)[C@H](CO)NC(=O)[C@H](Cc1ccc(O)cc1)NC(=O)[C@H](CC(=O)O)NC(=O)[C@H](CO)NC(=O)[C@@H](NC(=O)[C@H](Cc1ccccc1)NC(=O)[C@@H](NC(=O)CNC(=O)[C@H](CCC(N)=O)NC(=O)[C@H](CO)NC(=O)[C@@H](N)Cc1ccc(O)cc1)[C@@H](C)O)[C@@H](C)O)C(=O)N[C@@H](Cc1ccc(O)cc1)C(=O)N[C@@H](CC(C)C)C(=O)N[C@@H](CC(=O)O)C(=O)N[C@@H](CCC(=O)O)C(=O)N[C@@H](CCC(N)=O)C(=O)N[C@@H](C)C(=O)N[C@@H](C)C(=O)N[C@H]1CCCCNC(=O)CC[C@@H](C(=O)N[C@@H](Cc2c[nH]c3ccccc23)C(=O)N[C@@H](CC(C)C)C(=O)N[C@@H](CC(C)C)C(=O)N[C@@H](C)C(=O)NCC(=O)NCC(=O)N2CCC[C@H]2C(=O)N[C@@H](CO)C(=O)N[C@@H](CO)C(=O)NCC(=O)N[C@@H](C)C(=O)N2CCC[C@H]2C(=O)N2CCC[C@H]2C(=O)N2CCC[C@H]2C(=O)N[C@@H](CO)C(N)=O)NC(=O)[C@H](C(C)C)NC(=O)[C@H](Cc2ccccc2)NC(=O)[C@H](CCC(=O)O)NC1=O [mt-156] (H-YSQGTFTSDYSIYLDEQAAKEFVEWLLAGGPSSGAPPPS-NH2; lactam 20-24; N-terminus assumed) |  | 12.20% | 4.41% | 6.10% |  |

Reference: patent US9062124B2, “GIP-based mixed agonists for treatment of metabolic disorders and obesity” (priority 2008, dated 2015)
